Measurements taken from patent US11396517B1, “Exo-aza spiro inhibitors of menin-MLL interaction” (Janssen Pharmaceutica NV, priority 2017, dated 2022).
Read-outs that look alike come from different tables or passages of the source.

What was measured:
[1] = test system: MOLM14; experiment: Proliferation assay B (spheroid assay) MOLM14; format: cell-based, human; conditions: MOLM14 cells, confluence at day 8, absolute IC50, read-out: (3b) Spheroid assay MOLM14 (IC50(μM)) Assay B
Description: 3b) Proliferation Assay B
The anti-proliferative effect of menin/MLL protein/protein interaction inhibitor test compounds was assessed in human leukemia cell lines. The cell lines MV-4-11 and MOLM14 harbor MILL translocations and express the MILL fusion proteins MLL-AF4 and MLL-AF9, respectively, as well as the wildtype protein from the second allele. […] K562 was used as a control cell line containing two MLL wildtype alleles in order to exclude compounds that display general cytotoxic effects.
MV-4-11 and MOLM14 were cultured in RPMI-1640 (Sigma Aldrich) supplemented with 10% fetal bovine serum (HyClone), 2 mM L-glutamine (Sigma Aldrich) and 50 μg/ml gentamycin (Gibco). K562 were propagated in RPMI-1640 (Sigma Aldrich) supplemented with 20% fetal bovine serum (HyClone), 2 mM L-glutamine (Sigma Aldrich) and 50 μg/ml gentamycin (Gibco).
In order to assess the anti-proliferative effects, 1,500 MV-4-11, 300 MOLM14 cells or 750 K562 cells were seeded in 200 μl media per well in 96-well round bottom, ultra-low attachment plates (Costar, catalogue number 7007). Cell seeding numbers were chosen based on growth curves to ensure linear growth throughout the experiment. Test compounds were added at different concentrations and the DMSO content was normalized to 0.3%. Cells were incubated for 8 d at 37° C. and 5% CO2. Spheroid like growth was measured in real-time by live-cell imaging (IncuCyteZOOM, Essenbio, 4× objective) acquiring images at day 8. Confluence (%) as a measure of spheroid size was determined using an integrated analysis tool.
In order to determine the effect of the test compounds over time, the confluence in each well as a measure of spheroid size, was calculated. Confluence […] at the beginning of the experiment (t=0) was used as baseline for the calculation.
Absolute IC50 values were calculated as percent change in confluence as follows:
LC=Low Control: cells treated with 1 μM of the cytotoxic agent staurosporin
HC=High Control: Mean confluence (%) (DMSO treated cells) % Effect=100−(100*(Sample−LC)/(HC−LC))
To determine the IC50 a curve is fitted to the plot of % Effect vs Log 10 compound concentration using a sigmoidal fit with a variable slope and fixing the maximum to 100% and the minimum to 0%.

[2] = target: T1, menin (Homo sapiens, UniProt O00255, T541A); experiment: Menin/MLL homogenous time-resolved fluorescence (HTRF) assay; format: binding
T1 construct: Menin (a.a. 1-610-6×his tag)
T1 sequence (O00255 with tags, fused parts or gaps T541A): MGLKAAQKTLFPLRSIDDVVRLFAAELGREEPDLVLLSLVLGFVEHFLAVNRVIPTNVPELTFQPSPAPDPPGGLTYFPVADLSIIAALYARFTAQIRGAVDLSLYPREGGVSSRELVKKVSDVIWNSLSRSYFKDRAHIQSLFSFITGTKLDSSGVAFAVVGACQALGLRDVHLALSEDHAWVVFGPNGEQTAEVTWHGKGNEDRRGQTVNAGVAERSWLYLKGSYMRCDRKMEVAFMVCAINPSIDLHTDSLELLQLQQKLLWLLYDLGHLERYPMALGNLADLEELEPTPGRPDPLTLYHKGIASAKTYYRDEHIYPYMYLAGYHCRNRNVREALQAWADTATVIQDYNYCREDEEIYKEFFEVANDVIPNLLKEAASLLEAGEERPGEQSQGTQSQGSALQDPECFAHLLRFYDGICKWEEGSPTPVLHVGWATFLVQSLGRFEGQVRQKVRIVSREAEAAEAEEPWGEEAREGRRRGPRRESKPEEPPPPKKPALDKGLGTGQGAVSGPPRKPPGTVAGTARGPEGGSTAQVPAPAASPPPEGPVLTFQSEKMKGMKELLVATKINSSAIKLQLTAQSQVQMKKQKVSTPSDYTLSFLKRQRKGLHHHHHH
Outline: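 Displacement of 75 nM FITC-MBM1 from terbium-cryptate-labeled His-tagged menin 1-610 ([…]) was read as the 520/490 nm HTRF ratio. Compound (11-point, 3-fold series) got 5 min with menin before peptide, then 15 min at ambient; 0.5% DMSO, Tris pH 7.5.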

[3] = location 2, read-out: (2) location 2 Menin HTRF assay (IC50 (nM))
[4] = location 1, read-out: (2) location 1 Menin HTRF assay (IC50 (nM))

| Structure (SMILES) | IC50 ([1]; Homo sapiens, MOLM-14, 192 h) [µM] | IC50 [2, 3] [nM] | IC50 [1] [µM] | IC50 [2, 4] [nM] |
| --- | --- | --- | --- | --- |
| O=C(c1ccc(NC2CC3(CCN(c4ncnc5sc(CC(F)(F)F)cc45)C3)C2)cc1)N1CCS(=O)(=O)CC1 (single isomer, unassigned) [Compound 412] | – | 7510 | > 3.75 | – |
| CN(C)CCN(C)C(=O)c1ccc(NC2CC3(CCN(c4ncnc5sc(CC(F)(F)F)cc45)C3)C2)cc1 (mixture of isomers) [Compound 180] | > 3.75 | 43.4 | – | – |
| CS(=O)(=O)N1CCN(CCn2c(=O)[nH]c3cc(NC4CC5(CCN(c6ncnc7sc(CC(F)(F)F)cc67)C5)C4)ccc32)CC1 (mixture of isomers) [Compound 222] | > 3.75 | 418 | – | – |
| CNC(=O)c1ccc(NC2CC3(CCN(c4ncnc5sc(CC(F)(F)F)cc45)C3)C2)cn1 (single isomer, unassigned) [Compound 218] | – | 64.9 | > 3.75 | – |
| CS(=O)(=O)Cc1ccc(NC2CC3(CCN(c4ncnc5sc(CC(F)(F)F)cc45)C3)C2)cc1 (mixture of isomers) [Compound 344] | > 3.75 | 13.4 | – | – |
| FC(F)(F)Cc1cc2c(N3CC4(CC[C@H](Nc5ccc(-c6cn[nH]c6)cc5)C4)C3)ncnc2s1 (single isomer, unassigned) [Compound 304] | > 3.75 | 17.3 | – | – |
| CS(=O)(=O)N[C@H]1CC[C@H](NC2CC3(CCN(c4ncnc5sc(CC(F)(F)F)cc45)C3)C2)CC1 (single isomer, unassigned) [Compound 103] | > 3.75 | 1200 | – | 1160 |
| CS(=O)(=O)N1CCN(Cc2ccc(NC3CC4(CCN(c5ncnc6sc(CC(F)(F)F)cc56)C4)C3)cc2)CC1 (mixture of isomers) [Compound 351] | 3.51 | 15.5 | – | – |
| O=c1[nH]c2ccc(NCC3CC4(CCN(c5ncnc6sc(CC(F)(F)F)cc56)C4)C3)cc2[nH]1 (mixture of isomers) [Compound 198] | > 3.75 | 141 | – | – |
| CS(=O)(=O)N[C@H]1CC[C@H](NC2CC3(CCN(c4ncnc5sc(CC(F)(F)F)cc45)C3)C2)CC1 (stereo partly shown) [Compound 102] | > 3.75 | 362 | – | 342 |
| CS(=O)(=O)N1CCN(C(=O)c2ccc(NC3CC4(CCN(c5ncnc6sc(CC(F)(F)F)cc56)C4)C3)cc2)CC1 (single isomer, unassigned) [Compound 178] | > 3.75 | 127 | – | – |
| CNC(=O)c1cnc(NC2CC3(CCN(c4ncnc5sc(CC(F)(F)F)cc45)C3)C2)cn1 (single isomer, unassigned) [Compound 419] | – | 10.8 | 3.04 | – |
| CN1CCC(c2cc(NC3CC4(CCN(c5ncnc6sc(CC(F)(F)F)cc56)C4)C3)ccc2C(=O)N2CCOCC2)CC1 (single isomer, unassigned) [Compound 232] | > 3.75 | 667 | – | – |
| CNc1nc(N2CCC3(CC(Nc4ccc5oc(=O)[nH]c5c4)C3)C2)c2cc(CC(F)(F)F)sc2n1 (single isomer, unassigned) [Compound 398] | – | 16.2 | > 3.75 | – |
| O=C(c1ccc(NC2CC3(CCN(c4ncnc5sc(CC(F)(F)F)cc45)C3)C2)c(F)c1)N1CCOCC1 (single isomer, unassigned) [Compound 353] | > 3.75 | 17.3 | – | – |
| CN(C)CCNC(=O)c1ccc(NC2CC3(CCN(c4ncnc5sc(CC(F)(F)F)cc45)C3)C2)nc1 (single isomer, unassigned) [Compound 253] | – | 235 | > 3.75 | – |
| CNC(=O)c1ccc(NC2CC3(CCN(c4ncnc5sc(CC(F)(F)F)cc45)C3)C2)c(C)c1 (stereo not shown) [Compound 212] | – | 58.1 | > 3.75 | – |
| NC(=O)Cc1ccc(NC2CC3(CCN(c4ncnc5sc(CC(F)(F)F)cc45)C3)C2)cc1 (mixture of isomers) [Compound 348] | > 3.75 | 14.5 | – | – |
| N#Cc1ccc(NC2CC3(CCN(c4ncnc5sc(CC(F)(F)F)cc45)C3)C2)cn1 (mixture of isomers) [Compound 176] | 1.55 | 18.7 | – | – |
| CNC(=O)c1ccc(NC2CC3(CCN(c4ncnc5sc(CC(F)(F)F)cc45)C3)C2)cc1C1CCN(C)CC1 (single isomer, unassigned) [Compound 230] | > 3.75 | 489 | – | – |
| CS(=O)(=O)N[C@H]1CC[C@@H](NC2CC3(CCN(c4ncnc5sc(CC(F)(F)F)cc45)C3)C2)CC1 (stereo partly shown) [Compound 272] | – | 18 | 2.56 | – |
| CNC(=O)Cn1cc(NC2CC3(CCN(c4ncnc5sc(CC(F)(F)F)cc45)C3)C2)cn1 (single isomer, unassigned) [Compound 355] | > 3.75 | 1460 | – | – |
| CNC(=O)c1ccc(N[C@@H]2CC[C@]3(CCN(c4ncnc5sc(CC(F)(F)F)cc45)C3)C2)cc1 (stereo in doubt) [Compound 136] | > 3.75 | 409 | – | – |

The next compounds have a lower IC50 [2, 3] than those just listed; values first:

| IC50 ([1]; Homo sapiens, MOLM-14, 192 h) [µM] | IC50 [2, 3] [nM] | IC50 [1] [µM] | IC50 [2, 4] [nM] | Structure (SMILES) |
| --- | --- | --- | --- | --- |
| > 3.75 | 9.4 | – | – | Nc1nc(N2CCC3(CC(Nc4ccc5[nH]c(=O)[nH]c5c4)C3)C2)c2cc(CC(F)(F)F)sc2n1 (mixture of isomers) [Compound 381] |
| 1.22 | 7.9 | – | – | CC(NC(=O)c1ccc(NC2CC3(CCN(c4ncnc5sc(CC(F)(F)F)cc45)C3)C2)cc1)C1CCN(S(C)(=O)=O)CC1 (mixture of isomers) [Compound 191] |
| > 3.75 | 7.7 | – | – | CNC(=O)c1c(F)cc(NC2CC3(CCN(c4ncnc5sc(CC(F)(F)F)cc45)C3)C2)cc1F (single isomer, unassigned) [Compound 245] |
| 2.11 | 7.3 | – | – | O=C1NCCN1c1ccc(NC2CC3(CCN(c4ncnc5sc(CC(F)(F)F)cc45)C3)C2)cc1 (mixture of isomers) [Compound 346] |
| 0.46 | 4.2 | – | – | CC(CN(C)C)NC(=O)c1ccc(NC2CC3(CCN(c4ncnc5sc(CC(F)(F)F)cc45)C3)C2)cc1 (mixture of isomers) [Compound 193] |
| 2.3 | 3.9 | – | – | FC(F)(F)Cc1cc2c(N3CC[C@]4(CC[C@@H](Nc5ccc(-c6cc[nH]n6)cc5)C4)C3)ncnc2s1 (stereo in doubt) [Compound 141] |
| 0.99 | 3.8 | – | – | O=C(NCCN1CCOCC1)c1ccc(NC2CC3(CCN(c4ncnc5sc(CC(F)(F)F)cc45)C3)C2)cc1 (single isomer, unassigned) [Compound 88] |
| – | 3.7 | 1.69 | – | CNC(=O)c1ccc(NC2CC3(CCN(c4ncnc5sc(CC(F)(F)F)cc45)C3)C2)cn1 (single isomer, unassigned) [Compound 217] |
| – | 2.9 | 1.11 | – | CN(C)CCNC(=O)c1ccc(NC2CC3(CCN(c4ncnc5sc(CC(F)(F)F)cc45)C3)C2)c(F)c1 (single isomer, unassigned) [Compound 243] |
| 2.39 | 2.8 | – | – | CNC(=O)c1ccc(NC2CC3(CCN(c4ncnc5sc(CC(F)(F)F)cc45)C3)C2)cc1F (stereo not shown) [Compound 203] |
| – | 1.3 | 1.1 | 0.8 | CN(C(=O)c1ccc(NC2CC3(CCN(c4ncnc5sc(CC(F)(F)F)cc45)C3)C2)cc1)S(C)(=O)=O (single isomer, unassigned) [Compound 364] |
| 1.13 | 0.7 | – | – | COCCNC(=O)c1ccc(NC2CC3(CCN(c4ncnc5sc(CC(F)(F)F)cc45)C3)C2)cc1 (stereo not shown) [Compound 85] |
